The target in test [1] is T1, PrnC (Pseudomonas fluorescens, UniProt P95482).
T1 construct: made in house; host or cells: T7 Express E. coli (NEB), pET-28a(+)
T1 sequence (P95482 with tags, fused parts or gaps): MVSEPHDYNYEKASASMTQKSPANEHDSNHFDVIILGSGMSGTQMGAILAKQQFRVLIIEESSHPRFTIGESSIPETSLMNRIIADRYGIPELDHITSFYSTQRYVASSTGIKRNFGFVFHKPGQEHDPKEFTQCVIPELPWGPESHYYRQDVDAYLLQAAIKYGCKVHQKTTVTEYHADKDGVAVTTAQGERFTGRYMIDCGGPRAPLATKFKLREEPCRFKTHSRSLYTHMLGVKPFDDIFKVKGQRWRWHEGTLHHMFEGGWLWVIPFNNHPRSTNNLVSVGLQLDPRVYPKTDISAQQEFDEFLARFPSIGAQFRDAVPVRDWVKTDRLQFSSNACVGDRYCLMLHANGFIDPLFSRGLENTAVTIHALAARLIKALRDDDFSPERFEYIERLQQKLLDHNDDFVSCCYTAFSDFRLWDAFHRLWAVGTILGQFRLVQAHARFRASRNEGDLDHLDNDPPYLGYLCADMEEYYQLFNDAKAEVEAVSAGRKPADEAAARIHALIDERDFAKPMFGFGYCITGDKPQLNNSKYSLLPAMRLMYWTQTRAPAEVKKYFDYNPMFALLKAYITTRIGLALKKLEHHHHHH
In words: Optimization study of PrnC biocatalyst enzymatic assay conditions on the native substrate 1. In kind it is biochemical. Here is the method: The conditions in the table above would be referred to as the standard conditions of the present invention; i.e. flavin-dependent halogenase (4 mol %), flavin adenine dinucleotide (FAD) (0.2 mol %), E. coli flavin reductase (Fre) (0.5 mol %), nicotinamide adenine dinucleotide hydrogen (NADH) (5.0 equiv), glucose 1-dehydrogenase (GdHi) (0.5 mol %), monosaccharide (10.0 equiv), halogen (20.0 equiv), buffer (10 mM, pH 7.4).
With the purified biocatalyst PrnC enzyme in hand, a preliminary optimization study of the enzymatic assay conditions was performed on the native substrate monodechloroaminopyrrolnitrin (1). The enzyme assays were carried out for 18 h with orbital shaking at 300 rpm and a temperature of 30° C. In addition to the substrate and PrnC, the reaction mixture contained FAD (0.1 equivalents relative to PrnC), NADH and E. coli flavin reductase (Fre), needed to generate FADH2 for the halogenation reaction. In initial assays, even using a super stoichiometric amount of NADH (5.0 equiv) (entry 1) only yielded 18% conversion to the desired product.

Test [2] deals with T2, NT-11 PrnC (Pseudomonas fluorescens, UniProt P95482).
T2 construct: made in house; host or cells: T7 Express E. coli (NEB), pET-28a(+)
T2 sequence (P95482 with tags, fused parts or gaps): T1 sequence (P95482 with tags, fused parts or gaps)
In words: NT-11 PrnC-catalyzed halogenation, analytical scale biotransformation (in-vitro regioselective chlorination, substrate scope). The following applies: in-vitro chlorination by PrnC under optimized conditions; substrate 0.5 mM, MgCl2 10 mM, overnight 30° C.; HPLC. In kind it is biochemical. The protocol:
NT-11 PrnC-Catalyzed halogenation. In a solution containing the pyrrolic derivative starting material (0.5 mM), MgCl2/MgBr2 (10 mM), glucose (5.0 mM), FAD ([…]), NT-11 PrnC (12.5 μM), Fre ([…]) and Gdhi (2.5 μM) in 10 mM potassium phosphate buffer, NADH (2.5 mM) was added to a total volume of 200 μL. After an overnight incubation of 30° C. and orbital shaking at 350 rpm, reactions were quenched with an equivalent volume of MeOH, pelleted by centrifugation (15000 rpm for 10 min) and the supernatant analyzed by HPLC-MS using the analytical HPLC method.
Analytical HPLC Method. 10 μL of the supernatant injected onto SecurityGuard™ column (KJ0-4282) with a (4.0 mm×3.0 mm) guard cartridge before separation using a Phenomenex Gemini® C18 analytical column (5 μm packing, 150 mm×4.6 mm). Gradient starting conditions of 5% MeCN/H2O (+0.1% Formic acid) were held for 1 min before development into 50% MeCN/H2O over 3 min, followed by development into 95% MeCN/H2O over 3 min. 95% MeCN/H2O was held for 1 min before equilibration back to starting conditions over 1 min. Starting conditions was held for 1 min followed by another 2 min post-run. Flow rates were kept constant at 1 mL/min. Column temperature was kept constant at 30° C. UV absorbance was detected at 220 nm, 254 nm and 210 nm throughout the run.
A substrate scope of the enzyme by the application of the Prnc enzyme on a list of structural diverse pyrrolic substrates is determined. An optimized co-factors regeneration protocol was used to regulate the generation of the activated halogen which is captured by the Prnc enzyme into the active site for the bioconversion. Reaction is conducted at ambient temperature of 30° C., in an aqueous non-toxic buffer solution with an environmentally friendly chloride source.

Structures are written as SMILES. Marks after values point to notes of the source that are not given here.

On to `Nc1c(Cl)cccc1-c1c[nH]cc1Cl` [compound 2, 2-chloro-6-(4-chloro-1H-pyrrol-3-yl)aniline], for which the “conversion of 2 (%)” value in test [1] (entry 1: 2 mol% FAD (10x), no GdHi & glucose, 18 h, 30° C.) is 18%; in test [1] (entry 2: 2 mol% FAD (10x), GdHi regen) it was 16%; in test [1] (entry 4: 1 mol% of Fre (2x)), 72%; in test [1] (entry 5: 0.05 Equiv NADH (Less 100x)), 32%; in test [1] (entry 6: 0.05 Equiv NADH (Less 100x) + 8 mol% PrnC (2x)), 53%; in test [1] (entry 7: 0.05 Equiv NADH (Less 100x) in Tris HCl buffer), 49%. Moreover, the “conversion of 2 (%)” value in test [1] (standard conditions: PrnC 4 mol%, GdHi 0.5 mol%, FAD 0.2 mol%, Fre 0.5 mol%, NADH 5.0 equiv, glucose 10.0 equiv, MgCl2 20.0 equiv, phosphate buffer 10 mM pH 7.4) is listed as 91^b %. The compound further displayed a conversion yield in test [2] of 55%.

With `CC(=O)Nc1ccccc1-c1c[nH]cc1Cl` [compound 3, N-(2-(4-chloro-1H-pyrrol-3-yl)phenyl)acetamide], the conversion yield in test [2] was 18%.

Turning to `Cc1ccccc1-c1c[nH]cc1Cl` [compound 5, 3-chloro-4-(o-tolyl)-1H-pyrrole], the conversion yield in test [2] is 22%.

Turning to `COc1ccccc1-c1c[nH]cc1Cl` [compound 6, 3-chloro-4-(2-methoxyphenyl)-1H-pyrrole], the conversion yield in test [2] is 41%.

Turning to `Oc1ccccc1-c1c[nH]cc1Cl` [compound 7, 2-(4-chloro-1H-pyrrol-3-yl)phenol], the conversion yield in test [2] was 21%.

`Clc1c[nH]cc1-c1ccccc1` [compound 8, 3-chloro-4-phenyl-1H-pyrrole] displayed a conversion yield in test [2] of 77%.

Consider `Clc1c[nH]cc1-c1cccnc1` [compound 9, 3-(4-chloro-1H-pyrrol-3-yl)pyridine], for which the conversion yield in test [2] is recorded as 73%.

Consider `Nc1ccccc1-c1cc(Cl)c[nH]1` [compound 11, 2-(4-chloro-1H-pyrrol-2-yl)aniline], for which the conversion yield in test [2] worked out at 68%.

Consider `Nc1c(Cl)cccc1-c1[nH]ncc1Cl` [compound 12, 2-chloro-6-(4-chloro-1H-pyrazol-5-yl)aniline], for which, in test [2], the conversion yield was 14%.

In test [2], `Clc1c[nH]cc1-c1cnc2ccccc2c1` [compound 14, 3-(4-chloro-1H-pyrrol-3-yl) quinoline] came in with a conversion yield of 63%.

Values taken from US20260265798A1, “Enzymes and Uses in Biocatalytic Halogenation of N-Heteroaryls Thereof” (Agency for Science, Technology and Research, priority 2022, published 2026).
